Values of other authors in US7238683B2, “Fused phenylalanine derivatives as dipeptidyl peptidase-iv inhibitors for the treatment or prevention of diabetes” (Merck & Co., Inc., priority 2003, dated 2007).

Tests used:
[1] = test system: hematopoiesis; conditions: mouse, cyclophosphamide-induced neutropenia
[2] = biological target: T1, DP-IV (Homo sapiens, UniProt P27487)
T1 construct: GRP is rapidly degraded in plasma to GRF[3-44]; from tissue
T1 sequence (P27487 whole entry): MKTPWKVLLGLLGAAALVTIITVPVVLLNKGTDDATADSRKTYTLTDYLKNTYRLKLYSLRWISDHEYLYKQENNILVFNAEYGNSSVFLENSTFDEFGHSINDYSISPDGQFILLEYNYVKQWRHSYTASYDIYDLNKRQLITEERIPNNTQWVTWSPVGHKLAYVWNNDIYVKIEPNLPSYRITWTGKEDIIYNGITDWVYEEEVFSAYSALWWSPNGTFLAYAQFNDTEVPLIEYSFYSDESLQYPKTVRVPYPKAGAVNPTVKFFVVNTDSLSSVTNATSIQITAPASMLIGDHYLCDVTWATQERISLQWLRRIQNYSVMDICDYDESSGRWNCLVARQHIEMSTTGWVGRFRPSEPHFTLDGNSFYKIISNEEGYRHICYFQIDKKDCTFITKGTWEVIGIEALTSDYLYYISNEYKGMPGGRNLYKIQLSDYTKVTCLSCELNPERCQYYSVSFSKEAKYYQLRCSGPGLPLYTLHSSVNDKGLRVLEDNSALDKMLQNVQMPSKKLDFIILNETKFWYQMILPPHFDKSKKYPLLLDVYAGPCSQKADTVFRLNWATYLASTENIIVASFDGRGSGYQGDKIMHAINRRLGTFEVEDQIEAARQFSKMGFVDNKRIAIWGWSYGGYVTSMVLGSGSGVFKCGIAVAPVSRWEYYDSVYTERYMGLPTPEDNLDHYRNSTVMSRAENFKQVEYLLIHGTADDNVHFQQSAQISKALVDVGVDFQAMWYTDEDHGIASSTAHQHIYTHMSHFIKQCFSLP

Compound | effect on hematopoiesis [1] | degradation of GRF in plasma to GRF[3-44] [2]
CC(C)[C@H](N)C(=O)N1CCC[C@H]1B(O)O [Val-Boro-Pro] | stimulated hematopoiesis | 
CC[C@H](C)[C@H](N)C(=O)N1CCC[C@H]1C(=O)N[C@H](C(=O)O)[C@@H](C)CC [diprotin A] |  | prevented
